# Tests used:
# Type in all cases: in vivo
# [1] = test system: ducksalad (Heteranthera limosa); experiment: Test B flooded paddy test; details: Flood, 250 g ai/ha; 0 to 100 scale where 0 is no effect and 100 is complete control; 13 to 15 d
# Method in brief: (§1)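 Response scored visually against untreated controls, 0 = no effect and 100 = complete control, 13–15 d after treatment in the greenhouse. Compounds added to paddy water held 3 cm above soil surface. Treatment given at 2-leaf stage.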
# [2] = test system: barnyardgrass (Echinochloa crus-galli); experiment: Test B flooded paddy test; details: Flood, 250 g ai/ha; 0 to 100 scale where 0 is no effect and 100 is complete control; 13 to 15 d
# Method in brief: as §1
# rice (Oryra sativa) = experiment: Test B flooded paddy test; details: Flood, 250 g ai/ha; 0 to 100 scale where 0 is no effect and 100 is complete control; 13 to 15 d
# Method in brief: as §1
# [3] = test system: sedge, umbrella (small-flower umbrella sedge, Cyperus difformis); experiment: Test B flooded paddy test; details: Flood, 250 g ai/ha; for Plant response rating, Sedge, Umbrella: 0 to 100 scale where 0 is no effect and 100 is complete control, 13 to 15 d
# Method in brief: as §1
# [4] = test system: barnyardgrass (Echinochloa crus-galli); experiment: Test A preemergence; details: for Barnyardgrass plant response rating (0 to 100 scale, 0 is no effect, 100 is complete control): visual injury approx. 10 d
# Method in brief: (§2)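 Treatment is preemergence as a directed soil spray after planting, or postemergence at the one- to two-leaf stage, with test chemical in a non-phytotoxic solvent mixture plus surfactant. Plants stay in the greenhouse about 10 d before visual injury scoring on a 0 to 100 scale versus untreated controls.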
# [5] = test system: pigweed (Amaranthus retroflexus); experiment: Test A preemergence; details: for Pigweed plant response rating (0 to 100 scale, 0 is no effect, 100 is complete control): visual injury approx. 10 d
# Kochia (Kochia scoparia) [6] = experiment: Test A preemergence; details: for Kochia plant response rating (0 to 100 scale, 0 is no effect, 100 is complete control): visual injury approx. 10 d
# Method in brief: as §2
# [7] = test system: ryegrass, Italian (Italian ryegrass, Lolium multiflorum); experiment: Test A preemergence; details: for Ryegrass, Italian plant response rating (0 to 100 scale, 0 is no effect, 100 is complete control): visual injury approx. 10 d
# Method in brief: as §2
# [8] = test system: ragweed (common ragweed, Ambrosia elatior); experiment: Test A preemergence; details: for Ragweed plant response rating (0 to 100 scale, 0 is no effect, 100 is complete control): visual injury approx. 10 d
# Method in brief: as §2
# [9] = test system: giant foxtail (Setaria faberii); experiment: Test A preemergence; details: for Foxtail, Giant plant response rating (0 to 100 scale, 0 is no effect, 100 is complete control): visual injury approx. 10 d
# Method in brief: as §2
# [10] = test system: barnyardgrass (Echinochloa crus-galli); experiment: Test A postemergence
# Method in brief: as §2
# [11] = test system: wheat (Triticum aestivum); experiment: Test A postemergence
# Method in brief: as §2
# [12] = test system: Galium (catchweed bedstraw, Galium aparine); experiment: Test A postemergence
# Method in brief: as §2
# [13] = test system: pigweed (Amaranthus retroflexus); experiment: Test A postemergence
# Method in brief: as §2
# corn (Zea mays) = experiment: Test A postemergence
# Method in brief: as §2
# Kochia (Kochia scoparia) [14] = experiment: Test A postemergence
# Method in brief: as §2
# [15] = test system: ryegrass, Italian (Italian ryegrass, Lolium multiflorum); experiment: Test A postemergence
# Method in brief: as §2
# [16] = test system: blackgrass (Alopecurus myosuroides); experiment: Test A postemergence
# Method in brief: as §2
# [17] = test system: ragweed (common ragweed, Ambrosia elatior); experiment: Test A postemergence
# Method in brief: as §2
# [18] = test system: giant foxtail (Setaria faberii); experiment: Test A postemergence
# Method in brief: as §2
# [19] = 125 g ai/ha, Preemergence, visual injury after approximately 10 d, 0 to 100 scale where 0 is no effect and 100 is complete control
# [20] = 125 g ai/ha, postemergence, visual injury rating on 0 to 100 scale (0 no effect, 100 complete control), approx. 10 d
# [21] = Postemergence, 500 g ai/ha, 0 to 100 scale where 0 is no effect and 100 is complete control
# [22] = 125 g ai/ha, postemergence, visual rating after approx. 10 d, 0 to 100 scale (0 no effect, 100 complete control)
# [23] = 500 g ai/ha, preemergence, 0 to 100 scale, 0 = no effect, 100 = complete control
# [24] = 125 g ai/ha, preemergence, visual rating after approx. 10 d, 0 to 100 scale where 0 is no effect and 100 is complete control
# [25] = 500 g ai/ha, postemergence, visual injury, 0 to 100 scale (0 no effect, 100 complete control), approx. 10 d
# [26] = 125 g ai/ha, postemergence, visual injury after approximately 10 d, 0 to 100 scale (0 no effect, 100 complete control)
smiles,measurement,setting,value
O=C1NCC(c2cc(F)cc(C(F)(F)F)c2)C1C(=O)Nc1ccc(F)cc1F (stereo not drawn) [Compound 490],"Plant response rating, Ducksalad",[1],85
same,"Plant response rating, Barnyardgrass",[2],50
same,"Plant response rating, Rice",rice (Oryra sativa),30
same,"Plant response rating, Sedge, Umbrella",[3],0
same,"Plant response rating, Barnyardgrass",[4]; [19],80
same,"Barnyardgrass plant response rating (0 to 100 scale, 0 is no effect, 100 is complete control)","[4]; Preemergence, 500 g ai/ha",90
same,"Plant response rating, Pigweed",[5]; [19],0
same,"Pigweed plant response rating (0 to 100 scale, 0 is no effect, 100 is complete control)","[5]; Preemergence, 500 g ai/ha",0
same,"Plant response rating, Kochia",Kochia (Kochia scoparia) [6]; [19],0
same,"Kochia plant response rating (0 to 100 scale, 0 is no effect, 100 is complete control)","Kochia (Kochia scoparia) [6]; Preemergence, 500 g ai/ha",20
same,"Plant response rating, Ryegrass, Italian",[7]; [19],20
same,"Ryegrass, Italian plant response rating (0 to 100 scale, 0 is no effect, 100 is complete control)","[7]; Preemergence, 500 g ai/ha",50
same,"Plant response rating, Ragweed",[8]; [19],0
same,"Ragweed plant response rating (0 to 100 scale, 0 is no effect, 100 is complete control)","[8]; Preemergence, 500 g ai/ha",0
same,"Plant response rating, Foxtail, Giant",[9]; [19],90
same,"Foxtail, Giant plant response rating (0 to 100 scale, 0 is no effect, 100 is complete control)","[9]; Preemergence, 500 g ai/ha",90
same,Barnyardgrass plant response rating,[10]; [20],80
same,"Plant response rating, Barnyardgrass",[10]; [21],80
same,Wheat plant response rating,[11]; [20],30
same,"Plant response rating, Wheat",[11]; [21],50
same,Galium plant response rating,[12]; [20],20
same,"Plant response rating, Galium",[12]; [21],40
same,Pigweed plant response rating,[13]; [20],0
same,"Plant response rating, Pigweed",[13]; [21],20
same,Corn plant response rating,corn (Zea mays); [20],80
same,"Plant response rating, Corn",corn (Zea mays); [21],80
same,Kochia plant response rating,Kochia (Kochia scoparia) [14]; [20],0
same,"Plant response rating, Kochia",Kochia (Kochia scoparia) [14]; [21],20
same,"Ryegrass, Italian plant response rating",[15]; [20],0
same,"Plant response rating, Ryegrass, Italian",[15]; [21],30
same,Blackgrass plant response rating,[16]; [20],20
same,"Plant response rating, Blackgrass",[16]; [21],40
same,Ragweed plant response rating,[17]; [20],0
same,"Plant response rating, Ragweed",[17]; [21],20
same,"Foxtail, Giant plant response rating",[18]; [20],80
same,"Plant response rating, Foxtail, Giant",[18]; [21],80
O=C(Nc1ccccc1F)C1C(=O)N(c2ccc([N+](=O)[O-])cc2)CC1c1cccc(C(F)(F)F)c1 (stereo not drawn) [Compound 602],"Plant response rating, Ducksalad",[1],30
same,"Plant response rating, Barnyardgrass",[2],0
same,"Plant response rating, Rice",rice (Oryra sativa),0
same,"Plant response rating, Sedge, Umbrella",[3],0
same,"Plant response rating, Barnyardgrass",[4]; [19],0
same,"Barnyardgrass plant response rating (0 to 100 scale, 0 is no effect, 100 is complete control)","[4]; Preemergence, 500 g ai/ha",0
same,"Plant response rating, Pigweed",[5]; [19],0
same,"Pigweed plant response rating (0 to 100 scale, 0 is no effect, 100 is complete control)","[5]; Preemergence, 500 g ai/ha",0
same,"Plant response rating, Kochia",Kochia (Kochia scoparia) [6]; [19],0
same,"Kochia plant response rating (0 to 100 scale, 0 is no effect, 100 is complete control)","Kochia (Kochia scoparia) [6]; Preemergence, 500 g ai/ha",0
same,"Plant response rating, Ryegrass, Italian",[7]; [19],0
same,"Ryegrass, Italian plant response rating (0 to 100 scale, 0 is no effect, 100 is complete control)","[7]; Preemergence, 500 g ai/ha",0
same,"Plant response rating, Ragweed",[8]; [19],0
same,"Ragweed plant response rating (0 to 100 scale, 0 is no effect, 100 is complete control)","[8]; Preemergence, 500 g ai/ha",0
same,"Plant response rating, Foxtail, Giant",[9]; [19],0
same,"Foxtail, Giant plant response rating (0 to 100 scale, 0 is no effect, 100 is complete control)","[9]; Preemergence, 500 g ai/ha",0
same,"Plant response rating, Barnyardgrass",[10]; [22],0
same,"Plant response rating, Barnyardgrass",[10]; [21],0
same,"Plant response rating, Wheat",[11]; [22],0
same,"Plant response rating, Wheat",[11]; [21],0
same,"Plant response rating, Galium",[12]; [22],0
same,"Plant response rating, Galium",[12]; [21],0
same,"Plant response rating, Pigweed",[13]; [22],0
same,"Plant response rating, Pigweed",[13]; [21],0
same,"Plant response rating, Corn",corn (Zea mays); [22],0
same,"Plant response rating, Corn",corn (Zea mays); [21],0
same,"Plant response rating, Kochia",Kochia (Kochia scoparia) [14]; [22],0
same,"Plant response rating, Kochia",Kochia (Kochia scoparia) [14]; [21],0
same,"Plant response rating, Ryegrass, Italian",[15]; [22],0
same,"Plant response rating, Ryegrass, Italian",[15]; [21],0
same,"Plant response rating, Blackgrass",[16]; [22],0
same,"Plant response rating, Blackgrass",[16]; [21],0
same,"Plant response rating, Ragweed",[17]; [22],0
same,"Plant response rating, Ragweed",[17]; [21],0
same,"Plant response rating, Foxtail, Giant",[18]; [22],0
same,"Plant response rating, Foxtail, Giant",[18]; [21],0
O=C1NCC(c2cccc(Br)c2)C1C(=O)Nc1ccc(F)c(F)c1F (racemic) [Compound 689],"Plant response rating, Ducksalad",[1],98
same,"Plant response rating, Barnyardgrass",[2],40
same,"Plant response rating, Rice",rice (Oryra sativa),0
same,"Sedge, Umbrella plant response rating",[3]; scale of 0 to 100 where 0 is no effect and 100 is complete control,0
same,"Plant response rating, Barnyardgrass",[4]; [19],90
same,"Plant response rating, Barnyardgrass",[4]; [23],90
same,"Plant response rating, Pigweed",[5]; [24],20
same,"Plant response rating, Pigweed",[5]; [23],40
same,"Plant response rating, Kochia",Kochia (Kochia scoparia) [6]; [19],20
same,"Plant response rating, Kochia",Kochia (Kochia scoparia) [6]; [23],60
same,"Plant response rating, Ryegrass, Italian",[7]; [24],0
same,"Plant response rating, Ryegrass, Italian",[7]; [23],20
same,"Plant response rating, Ragweed",[8]; [24],0
same,"Plant response rating, Ragweed",[8]; [23],30
same,"Plant response rating, Foxtail, Giant",[9]; [19],90
same,"Plant response rating, Foxtail, Giant",[9]; [23],90
same,"Plant response rating, Barnyardgrass",[10]; [22],90
same,"Plant response rating, Barnyardgrass",[10]; [25],90
same,"Plant response rating, Wheat",[11]; [26],20
same,"Plant response rating, Wheat",[11]; [25],60
same,"Plant response rating, Galium",[12]; [26],50
same,"Plant response rating, Galium",[12]; [25],50
same,"Plant response rating, Pigweed",[13]; [26],30
same,"Plant response rating, Pigweed",[13]; [25],60
same,"Plant response rating, Corn",corn (Zea mays); [26],60
same,"Plant response rating, Corn",corn (Zea mays); [25],80
same,"Plant response rating, Kochia",Kochia (Kochia scoparia) [14]; [26],30
same,"Plant response rating, Kochia",Kochia (Kochia scoparia) [14]; [25],60
same,"Plant response rating, Ryegrass, Italian",[15]; [26],30
same,"Plant response rating, Ryegrass, Italian",[15]; [25],60
same,"Plant response rating, Blackgrass",[16]; [22],50
same,"Plant response rating, Blackgrass",[16]; [25],60
same,"Plant response rating, Ragweed",[17]; [26],0
same,"Plant response rating, Ragweed",[17]; [25],50
same,"Plant response rating, Foxtail, Giant",[18]; [26],80
same,"Plant response rating, Foxtail, Giant",[18]; [25],90

# — patent publication US12077503B2, “Substituted cyclic amides and their use as herbicides” (FMC CORPORATION, priority 2015, dated 2024)
